Laboratory results taken from patent US10683326B2, “Crystalline salt forms” (Stealth BioTherapeutics Corp., priority 2016, dated 2020).
Where a name gives a salt, the structure may show the parent alone. Where a SMILES comes first, the peptide text is derived from it. [ ]: non-standard residue; d: D form. Dmt = Cc1cc(O)cc(C)c1C[C@H](N)C(=O)O

What was measured:
[1] = counterion acid; cited from earlier work
[2] = counterion acid; cited from earlier work; remark: listed apart in the source
[3] = Salt disproportionation studies (slurry in deionized water, pH and XRPD); type: physicochemical; details: 20° C.
Procedure: The scaled-up tosylate and fumarate salts were subjected to salt disproportionation studies at ambient temperature. The following observations and results were obtained during these disproportionation studies: • After stirring the tosylate salt at 20° C. in deionized water for 30 min, pH=2.58.

[4] = Hydration studies in IPA/water at 3 water activities, XRPD; type: physicochemical
[5] = 7-day stability testing (40° C./75% RH, 80° C., ambient temperature and light), XRPD and HPLC; type: physicochemical; details: 7 days
Procedure: (§1) Approximately 30 mg of the tosylate and fumarate salts were subjected to 7-day stability testing under the following conditions: • 40° C./75% RH • 80° C. • Ambient temperature and light After 7 days under the stated conditions, XRPD and HPLC analysis was carried out on the resultant solid material. Salt Disproportionation Studies
as §1, with “light •” for “light”, “Hydration” for “Salt Disproportionation”
The scaled-up tosylate and fumarate salts were subjected to 7-day stability testing at 40° C./75% RH, 80° C. and ambient temperature and light.

[6] = physchem
Procedure: 25 mL of 0.2 M potassium hydrogen phthalate solution and 2.50 mL of 0.2 M sodium hydroxide solution were diluted to 100 mL using deionized water. The pH was adjusted as required, using either potassium hydrogen phthalate or sodium hydroxide solution.
25 mL of 0.2 M potassium phosphate monobasic solution and 11.20 mL of 0.2 M sodium hydroxide solution were diluted to 100 mL using deionized water. The pH was adjusted as required, using either potassium phosphate monobasic or sodium hydroxide solution.

[7] = Dynamic Vapor Sorption (DVS); type: physicochemical; details: for change in mass (DVS): between 20-90% RH
Procedure: Approximately 10 mg of sample was placed into a mesh vapor sorption balance pan and loaded into a DVS-1 dynamic vapor sorption balance by Surface Measurement Systems. The sample was subjected to a ramping profile from 40-90% relative humidity (RH) at 10% increments, maintaining the sample at each step until a stable weight had been achieved (99.5% step completion). After completion of the sorption cycle, the sample was dried using the same procedure to 0% RH and then a second sorption cycle back to 40% RH. The weight changes during the sorption/desorption cycles were plotted, allowing the hygroscopic nature of the sample to be determined. XRPD analysis was then carried out on the remaining solid.

[8] = Primary salt screen: stability testing of crystalline hits for 72 hours at 40° C./75% RH, post-stability XRPD and HPLC
[9] = 40° C./75% RH, listed as fumarate
[10] = 40° C./75% RH, listed as tosylate

In the case of `O=C(O)c1ccc2ccccc2c1O` [1-Hydroxy-2-naphthoic], the LogP [1] is given as 3.29.
For `O=C(O)CCCCC(=O)O` [Adipic], the LogP [1] is given as 0.08.
In the case of `CC(C)CCC[C@@H](C)[C@H]1CC[C@H]2[C@@H]3CC=C4C[C@@H](OS(=O)(=O)O)CC[C@]4(C)[C@H]3CC[C@]12C` [Cholesteryl sulfate], the LogP [1] is listed as 4.45.
In the case of `O=C[C@H](O)[C@@H](O)[C@H](O)[C@H](O)C(=O)O` [D-Glucuronic acid], the LogP [1] is listed as −1.49.
In the case of `C[C@H](CCC(=O)O)[C@H]1CC[C@H]2[C@@H]3CC[C@@H]4C[C@H](O)CC[C@]4(C)[C@H]3C[C@H](O)[C@]12C` [Deoxycholic acid], the “pKa 1” value [2] is given as 4.76.
In the case of `CCS(=O)(=O)O` [Ethanesulfonic acid], the LogP [1] is listed as −1.36.
For `Cc1cc(O)cc(C)c1C[C@H](NC(=O)[C@H](N)CCCNC(=N)N)C(=O)N[C@@H](CCCCN)C(=O)N[C@@H](Cc1ccccc1)C(N)=O` [Fumarate Pattern 4] (H-[dR][Dmt]KF-NH2), the pH of slurry ([3]; 30 min, listed as fumarate salt) was 3.50, the “XRPD analysis of the post-slurry material” value ([3]; 20 h, listed as fumarate salt) was “changed to a new pattern (designated Pattern 5)” and the pH of slurry ([3]; 20 h, listed as fumarate salt) was 3.48. The “XRPD analysis of the isolated solids after hydration studies” value (“XRPD analysis … after hydration studies” below) ([4]; aw=0.368 and 0.608, 20° C., 24 h) was “Pattern 3”, the “XRPD analysis … after hydration studies” value ([4]; aw=0.911, 20° C., 24 h) was “Pattern 5” and the “Purity by HPLC” value [5, 9] was 97.5%. For the same compound, the “decrease in purity after stability testing” value (“decrease in purity” for short) [5, 9] was “ca. 2.4%”, the “Post-stability XRPD analysis” value ([5]; 80° C.) was “loss of crystallinity” and the “decrease in purity” value ([5]; 80° C.) was “ca. 17%”. The “Purity by HPLC” value ([5]; 80° C., listed as Fumarate) was 83.0%, the “Purity by HPLC” value ([5]; ambient temperature and light) was 99.6% and the “Post-stability XRPD analysis” value ([5]; lower temperatures: 40° C./75% RH or ambient conditions) was “unchanged”. For the same compound, the “Solid Form isolated after solubility study” value (shortened to “Solid Form isolated”) ([6]; buffer pH 1.2, 20° C., 24 h, listed as Fumarate) was “Fumaric acid”, the “Solid Form isolated” value ([6]; buffer pH 1.2, 20° C., 24 h, listed as fumarate salt) was “fumaric acid only” and the “Solid Form isolated” value ([6]; buffer pH 4.5, 20° C., 24 h, listed as fumarate salt) was “Pattern 5”. For the same compound, the “Solid Form isolated” value ([6]; buffer pH 6.8, 20° C., 24 h, listed as fumarate salt) was “No solid was isolated”, the “change in mass (DVS)” value ([7]; listed as fumarate salt) was “ca. 11.5%” and the “Post-DVS XRPD analysis” value ([7]; listed as fumarate salt) was “remained Pattern 4”. For the same compound, the “hygroscopicity by DVS analysis” value ([7]; listed as fumarate salt) was “hygroscopic”.
In the case of `N[C@@H](CCC(=O)O)C(=O)O` [L-Glutamic acid], the LogP [1] is listed as −1.43.
In the case of `O=C(O)C[C@H](O)C(=O)O` [L-Malic], the LogP [1] is listed as −1.26.
In the case of `CCCCCCCCCCCC(=O)O` [Lauric], the “pKa 1” value [2] is given as 4.90 and the LogP [1] is given as 4.6.
For `O=C(O)/C=C\C(=O)O` [Maleic], the LogP [1] is given as −0.01.
For `O=C(O)C(=O)O` [Oxalic], the LogP [1] is given as −1.19.
With `Cc1cc(O)cc(C)c1C[C@H](NC(=O)[C@H](N)CCCNC(=N)N)C(=O)N[C@@H](CCCCN)C(=O)N[C@@H](Cc1ccccc1)C(N)=O` [Tosylate Pattern 1] (H-[dR][Dmt]KF-NH2) the pH of slurry ([3]; 30 min, listed as tosylate salt) was 2.58, the “XRPD analysis of the post-slurry material” value ([3]; 20 h, listed as tosylate salt) was “no change to the input Pattern 1 material” and the pH of slurry ([3]; 20 h, listed as tosylate salt) was 2.53. The “XRPD analysis … after hydration studies” value ([4]; aw=0.368, 0.608 and 0.911, 20° C., 25 h) was “unchanged”, the “Post-stability XRPD analysis” value ([5]; 40° C./75% RH, 80° C. and ambient temperature and light) was “unchanged” and the “Purity by HPLC” value [5, 10] was 98.5%. The “decrease in purity” value [5, 10] was “ca. 1.3%”, the “Purity by HPLC” value ([5]; 80° C., listed as Tosylate) was 99.4% and the “XRPD analysis of samples after stability testing” value ([8]; 40° C./75% RH, 72 hours) was “improved in crystallinity”. For the same compound, the “purity by HPLC analysis of samples after stability testing” value ([8]; 40° C./75% RH, 72 hours) was 80.6%, the “Purity by HPLC (post-stability)” value ([8]; 72 hours at 40° C./75% RH) was 80.6 and the “Same XRPD, post-stability” value ([8]; 72 hours at 40° C./75% RH, P1 = Pattern 1) was “yes”. The solubility thermodynamic at 24 h ([6]; aqueous buffer pH 1.2, pH 1.2, Concentration by HPLC (thermodynamic solubility), buffer pH 1.2, 20° C., 24 h) was 23.8 mg/mL, the solubility at 24 h ([6]; aqueous buffers pH 1.2, 4.5 and 6.8) was ~25 mg/mL and the “Solid Form isolated” value ([6]; buffer pH 1.2, 20° C., 24 h, listed as Tosylate) was “Pattern 1”. For the same compound, the “Solid Form isolated” value ([6]; buffer pH 4.5, 20° C., 24 h) was “Pattern 1”, the “Solid Form isolated” value ([6]; buffer pH 6.8, 20° C., 24 h) was “Pattern 1” and the “XRPD analysis of the isolated solids after thermodynamic solubility studies” value ([6]; each buffer solution (pH 1.2, 4.5, 6.8), 20° C., 24 h) was “unchanged”. For the same compound, the “change in mass (DVS)” value ([7]; listed as tosylate salt) was “ca. 1.3%”, the “Post-DVS XRPD analysis” value ([7]; listed as tosylate salt) was “remained Pattern 1” and the “hygroscopicity by DVS analysis” value ([7]; listed as tosylate salt) was “slightly hygroscopic”.
For `Cc1ccc(S(=O)(=O)O)cc1` [p-Toluenesulfonic acid], the LogP [1] is given as 0.93.
